Assay [1] concerns the target isolated recombinant JAK1 kinase domain (Homo sapiens (Human), UniProt P23458). Nature of the assay: JAK1 enzyme assay (Caliper LabChip, peptide phosphorylation). It is filed as biochemical. Conditions: isolated recombinant JAK1 kinase domain, 25 μM ATP.
For assay [2], the target named is isolated recombinant JAK2 kinase domain (Homo sapiens (Human), UniProt O60674). The experiment in a line: JAK2 enzyme assay (Caliper LabChip, peptide phosphorylation). It is filed as biochemical. To be noted: 25 μM ATP.
Sequence of isolated recombinant JAK2 kinase domain (O60674 849-1124): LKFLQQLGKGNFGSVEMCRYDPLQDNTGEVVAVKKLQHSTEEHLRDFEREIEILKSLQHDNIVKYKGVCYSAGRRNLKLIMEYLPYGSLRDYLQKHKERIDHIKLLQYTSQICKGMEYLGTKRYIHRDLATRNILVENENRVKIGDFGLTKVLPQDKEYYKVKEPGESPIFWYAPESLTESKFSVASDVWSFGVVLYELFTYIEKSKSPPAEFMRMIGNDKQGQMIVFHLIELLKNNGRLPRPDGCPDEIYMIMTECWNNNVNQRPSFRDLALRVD
For assay [3], the system named is JAK1-dependent STAT6 phosphorylation downstream of IL-13 stimulation in BEAS-2B human bronchial epithelial cells. Nature of the assay: JAK1 pathway assay in BEAS-2B cells (IL-13-pSTAT6, MSD). It is filed as cell-based. To be noted: read-out: IL13-pSTAT6 EC50 (uM)_BEAS-2B. The procedure:
JAK1 Pathway Assay in Cell Lines was Carried Out as Follows:
Inhibitor potency (EC50) was determined in cell-based assays designed to measure JAK1 dependent STAT phosphorylation.
In one assay approach, TF-1 human erythroleukemia cells obtained from the American Type Culture Collection (ATCC; Manassas, Va.) were used to measure JAK1-dependent STAT6 phosphorylation downstream of IL-13 stimulation. Prior to use in the assays, TF-1 cells were starved of GM-CSF overnight in OptiMEM medium (Life Technologies, Grand Island, N.Y.) supplemented with 0.5% charcoal/dextran stripped fetal bovine serum (FBS), 0.1 mM non-essential amino acids (NEAA), and 1 mM sodium pyruvate. The assays were run in 384-well plates in serum-free OptiMEM medium using 300,000 cells per well. In a second assay approach, BEAS-2B human bronchial epithelial cells obtained from ATCC were plated at 100,000 cells per well of a 96-well plate one day prior to the experiment. The BEAS-2B assay was run in complete growth medium (bronchial epithelial basal medium plus bulletkit; Lonza; Basel, Switzerland).
Test compounds were serially diluted 1:2 in DMSO and then diluted 1:50 in medium just before use. Diluted compounds were added to the cells, for a final DMSO concentration of 0.2%, and incubated for 30 min (for the TF-1 assay) or 1 hr (for the BEAS-2B assay) at 37° C. Then, cells were stimulated with human recombinant cytokine at their respective EC90 concentrations, as previously determined for each individual lot. Cells were stimulated with IL-13 (R&D Systems, Minneapolis, Minn.) for 15 min at 37° C. The TF-1 cell reactions were stopped by the direct addition of 10× lysis buffer (Cell Signaling Technologies, Danvers, Mass.), whereas the BEAS-2B cell incubations were halted by the removal of medium and addition of 1× lysis buffer. The resultant samples were frozen in the plates at −80° C. Compound mediated inhibition of STAT6 phosphorylation was measured in the cell lysates using MesoScale Discovery (MSD) technology (Gaithersburg, Md.).

Sequence of isolated recombinant JAK1 kinase domain (P23458 875-1153): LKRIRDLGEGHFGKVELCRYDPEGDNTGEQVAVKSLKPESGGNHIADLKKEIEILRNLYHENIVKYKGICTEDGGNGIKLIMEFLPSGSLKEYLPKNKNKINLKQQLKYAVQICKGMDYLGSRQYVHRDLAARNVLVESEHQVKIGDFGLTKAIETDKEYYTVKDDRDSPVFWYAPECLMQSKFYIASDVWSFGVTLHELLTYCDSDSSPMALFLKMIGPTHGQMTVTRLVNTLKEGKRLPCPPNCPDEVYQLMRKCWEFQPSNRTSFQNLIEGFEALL

Regarding `CC(C)(C)OC(=O)N1CC[C@@H](n2cc(NC(=O)c3cnn4cccnc34)c(-c3cc(Cl)ccc3OC(F)F)n2)[C@H](O)C1` (single isomer, unassigned) [Example 354], the results for the Ki in assay [1] and in assay [2] were 0.72 nM and 1.05 nM, respectively. For the same compound, in assay [3], the half-maximal effective concentration (EC50) (as a rule, the concentration needed to bring the measured effect to its halfway point) was found to be 0.024 µM.

With `CC(C)(C)OC(=O)N1CC[C@H](n2cc(NC(=O)c3cnn4cccnc34)c(-c3cc(Cl)ccc3OC(F)F)n2)[C@@H](O)C1` (single isomer, unassigned) [Example 355], the inhibition constant Ki – broadly, the equilibrium dissociation constant of an inhibitor or competing ligand from its target – in assay [1] amounted to 3.32 nM; in assay [2], 3.72 nM. Also, the EC50 in assay [3] was determined as 0.0678 µM.

With `CC(C)(C)OC(=O)N1CC[C@@H](O)[C@H](n2cc(NC(=O)c3cnn4cccnc34)c(-c3cc(Cl)ccc3OC(F)F)n2)C1` (single isomer, unassigned) [Example 356], the figures for the Ki in assay [1] and in assay [2] were 2.64 nM and 2.37 nM, respectively. Further, the EC50 in assay [3] is 0.0396 µM.

For the compound `CC(C)(C)OC(=O)N1CC[C@H](O)[C@@H](n2cc(NC(=O)c3cnn4cccnc34)c(-c3cc(Cl)ccc3OC(F)F)n2)C1` (single isomer, unassigned) [Example 357], the figures for the Ki in assay [1] and in assay [2] were 1.22 nM and 1.06 nM, respectively. In assay [3], the EC50 came to 0.0216 µM.

`N#Cc1ccc(CN2CCN(C(=O)Cn3cc(NC(=O)c4cnn5cccnc45)c(-c4cc(Cl)ccc4OC(F)F)n3)CC2)cc1` [Example 238, N-[3-[5-chloro-2-(difluoromethoxy)phenyl]-1-[2-[4-[(4-cyanophenyl)methyl]piperazin-1-yl]-2-oxo-ethyl]pyrazol-4-yl]pyrazolo[1,5-a]pyrimidine-3-carboxamide]: the Ki in assay [1] came to 0.45 nM; in assay [2] it was 0.55 nM. Also, in assay [3], the concentration for a half-maximal effect (EC50) stood at 0.0218 µM.

On to `O=C(O)CN1CCN(C(=O)Cn2cc(NC(=O)c3cnn4cccnc34)c(-c3cc(Cl)ccc3OC(F)F)n2)CC1` [Example 310, 2-[4-(2-[3-[5-chloro-2-(difluoromethoxy)phenyl]-4-[pyrazolo[1,5-a]pyrimidine-3-amido]-1H-pyrazol-1-yl]acetyl)piperazin-1-yl]acetic acid], for which the inhibitory constant (Ki) in assay [1] was determined as 0.52 nM; in assay [2] it was 0.59 nM. Moreover, the concentration for a half-maximal effect (EC50) in assay [3] was 8.83 µM.

Regarding `O=C(O)CNC1CCN(CCn2cc(NC(=O)c3cnn4cccnc34)c(-c3cc(Cl)ccc3OC(F)F)n2)CC1` [Example 311, 2-[[1-(2-[3-[5-chloro-2-(difluoromethoxy)phenyl]-4-[pyrazolo[1,5-a]pyrimidine-3-amido]-1H-pyrazol-1-yl]ethyl)piperidin-4-yl]amino]acetic acid], the Ki is 1.25 nM in assay [1] and 0.73 nM in assay [2]. Further, in assay [3], the EC50 worked out at 2.6 µM.

As for `CSCCNCCn1cc(NC(=O)c2cnn3cccnc23)c(-c2cc(Cl)ccc2OC(F)F)n1` [Example 312, N-[3-[5-chloro-2-(difluoromethoxy)phenyl]-1-(2-[[2-(methylsulfanyl)ethyl]amino]ethyl)-1H-pyrazol-4-yl]pyrazolo[1,5-a]pyrimidine-3-carboxamide], the values for the inhibition constant (Ki) in assay [1] and in assay [2] were 0.4 nM and 0.32 nM, respectively. For the same compound, in assay [3], the EC50 was determined as 0.0719 µM.

In the case of `O=C(Nc1cn(CCNCc2ccccn2)nc1-c1cc(Cl)ccc1OC(F)F)c1cnn2cccnc12` [Example 314, N-[3-[5-chloro-2-(difluoromethoxy)phenyl]-1-[2-[(pyridin-2-ylmethyl)amino]ethyl]-1H-pyrazol-4-yl]pyrazolo[1,5-a]pyrimidine-3-carboxamide], the inhibition constant (Ki) is 0.62 nM in assay [1] and 0.39 nM in assay [2]. For the same compound, the half-maximal effective concentration (EC50) in assay [3] worked out at 0.0995 µM.

Regarding `O=C(Nc1cn(CCNCc2ccncc2)nc1-c1cc(Cl)ccc1OC(F)F)c1cnn2cccnc12` [Example 315, N-[3-[5-chloro-2-(difluoromethoxy)phenyl]-1-[2-[(pyridin-4-ylmethyl)amino]ethyl]-1H-pyrazol-4-yl]pyrazolo[1,5-a]pyrimidine-3-carboxamide], the Ki in assay [1] was 0.72 nM; in assay [2], 0.4 nM. Besides, the EC50 in assay [3] turned out to be 0.0823 µM.

Consider `CC(c1ccccc1)N1CCN(C(=O)Cn2cc(NC(=O)c3cnn4cccnc34)c(-c3cc(Cl)ccc3OC(F)F)n2)CC1` (centres unmarked) [Example 316, N-[3-[5-chloro-2-(difluoromethoxy)phenyl]-1-[2-oxo-2-[4-(1-phenylethyl)piperazin-1-yl]ethyl]-1H-pyrazol-4-yl]pyrazolo[1,5-a]pyrimidine-3-carboxamide], for which the values for the Ki in assay [1] and in assay [2] were 0.48 nM and 1.04 nM, respectively. For the same compound, in assay [3], the concentration for a half-maximal effect (EC50) was 0.142 µM.

`CC(C)CN1CCN(C(=O)Cn2cc(NC(=O)c3cnn4cccnc34)c(-c3cc(Cl)ccc3OC(F)F)n2)CC1` [Example 317, N-[3-[5-chloro-2-(difluoromethoxy)phenyl]-1-[2-[4-(2-methylpropyl)piperazin-1-yl]-2-oxoethyl]-1H-pyrazol-4-yl]pyrazolo[1,5-a]pyrimidine-3-carboxamide]: the inhibition constant (Ki) came to 0.64 nM in assay [1] and 1.16 nM in assay [2]. Also, the EC50 in assay [3] is 0.0229 µM.

With `CC1(CN2CCN(C(=O)Cn3cc(NC(=O)c4cnn5cccnc45)c(-c4cc(Cl)ccc4OC(F)F)n3)CC2)COC1` [Example 318, N-[3-[5-chloro-2-(difluoromethoxy)phenyl]-1-(2-[4-[(3-methyloxetan-3-yl)methyl]piperazin-1-yl]-2-oxoethyl)-1H-pyrazol-4-yl]pyrazolo[1,5-a]pyrimidine-3-carboxamide], the inhibitory constant (Ki) came to 0.56 nM in assay [1] and 1.11 nM in assay [2]. For the same compound, in assay [3], the EC50 is 0.0283 µM.

In the case of `CCCN1CCN(C(=O)Cn2cc(NC(=O)c3cnn4cccnc34)c(-c3cc(Cl)ccc3OC(F)F)n2)CC1` [Example 319, N-[3-[5-chloro-2-(difluoromethoxy)phenyl]-1-[2-oxo-2-(4-propylpiperazin-1-yl)ethyl]-1H-pyrazol-4-yl]pyrazolo[1,5-a]pyrimidine-3-carboxamide], the Ki came out at 0.5 nM in assay [1] and 0.86 nM in assay [2]. Further, the EC50 in assay [3] came to 0.0577 µM.

`O=C(Nc1cn(CC(=O)N2CCN(Cc3ccccc3)CC2)nc1-c1cc(Cl)ccc1OC(F)F)c1cnn2cccnc12` [Example 320, N-[1-[2-(4-benzylpiperazin-1-yl)-2-oxoethyl]-3-[5-chloro-2-(difluoromethoxy)phenyl]-1H-pyrazol-4-yl]pyrazolo[1,5-a]pyrimidine-3-carboxamide]: the inhibitory constant (Ki) in assay [1] turned out to be 0.31 nM; in assay [2], 0.6 nM. For the same compound, the concentration for a half-maximal effect (EC50) in assay [3] turned out to be 0.0473 µM.

Take `O=C(Nc1cn(CC(=O)N2CCN(CCN3CCOCC3)CC2)nc1-c1cc(Cl)ccc1OC(F)F)c1cnn2cccnc12` [Example 321, N-[3-[5-chloro-2-(difluoromethoxy)phenyl]-1-(2-[4-[2-(morpholin-4-yl)ethyl]piperazin-1-yl]-2-oxoethyl)-1H-pyrazol-4-yl]pyrazolo[1,5-a]pyrimidine-3-carboxamide]: the Ki in assay [1] is 0.4 nM; in assay [2] it was 0.9 nM. For the same compound, the EC50 in assay [3] came out at 0.0133 µM.

With `O=C(CN1CCCCC1)Cn1cc(NC(=O)c2cnn3cccnc23)c(-c2cc(Cl)ccc2OC(F)F)n1` [Example 418, N-(3-(5-chloro-2-(difluoromethoxy)phenyl)-1-(2-oxo-3-(piperidin-1-yl)propyl)-1H-pyrazol-4-yl)pyrazolo[1,5-a]pyrimidine-3-carboxamide], in assay [2], the inhibitory constant (Ki) is 0.8 nM. In addition, the EC50 in assay [3] worked out at 0.0609 µM.

The record behind these values is US9346815B2, “5-chloro-2-difluoromethoxyphenyl pyrazolopyrimidine compounds, compositions and methods of use thereof” (Genentech, Inc., priority 2014, dated 2016).
